Laboratory results published in US10064865B2, “Composition comprising phosphodiesterase type 5 inhibitor for inhibiting apoptosis of nerve cells” (ARIBIO INC., priority 2012, dated 2018).

Key:
[1] = tested on: neuron apoptosis-operated rats; experiment: Example 2 body swing test; type: in vivo, Sprague-Dawley (SD) rats
Procedure: Sensorimotor function was evaluated by use of limb placing (de Ryck M et al., Stroke. 20:1383-90(1989)) and body swing (Borlongan and Sanberg, J Neurosci. 15:5372-8(1995)) tests. These tests were performed at 1 and 28 days after neuron apoptosis. The investigator performing the surgery and behavioral assessments was blinded to treatment assignment.
Body swing tests: Animals were held approximately 2 cm from the base of its tail and elevated to an inch above a surface of a table. A swing was recorded whenever the rat moved its head out of the vertical axis to either side by more than 10° from vertical and then returned to the vertical position. Thirty total swings were counted per animal. After right-hemisphere neuron apoptosis, animals tend to swing to the contralateral (left) side. Thus, the numbers and percentages of body swings to the ipsilateral (right) side were recorded as a measure of recovery, with an intact animal scoring.
All data were expressed as mean±standard deviation (S.D.) of ten rats. Multiple comparison tests for different dose groups were conducted. Variance homogeneity was examined using the Levene test (Levene A, Clin Otalary, 1981; 6:145-51). […] Statistical analyses were conducted using SPSS for Windows (Release 14K, SPSS Inc., USA; Ludbrook, Clin Exp Pharmacol Physiol, 1997; 24:294-6). In addition, the percent changes as compared with neuron apoptosis control and mirodenafil treated rats were calculated to help the understanding of the efficacy of test substances as follow Equation 6 and 7. Percentage Changes as Compared with Sham Control (%)=[((Data of neuron apoptosis control−Data of sham control rat)/Data of sham control rats)×100] [EQUATION 6] Percentage Changes as Compared with neuron apoptosis Control (%)=[((Data of test material treated rats−Data of neuron apoptosis control rats)/Data of neuron apoptosis control rats)×100] [EQUATION 7]

[2] = tested on: PARP; experiment: Example 1 immunohistochemistry: PARP-immunoreactive cells; type: in vivo, Sprague-Dawley (SD) rats; details: for Numbers of neurons: PARP+: 29 days after neuron apoptosis
Procedure: The induction of neuron apoptosis was carried out by damaging the right hemisphere of the brain of animals. Specifically, animals were anesthetized with 2 or 3% isoflurane in the mixture of 70% N2O and 28.5% O2, and were maintained with 1 to 1.5% isoflurane in the mixture of 70% N2O and 28.5% O2. After that the temporalis muscle was bisected and reflected through an incision made midway between the eye and the eardrum canal. The proximal MCA was exposed through a subtemporal craniectomy by microdental drills without removing the zygomatic arch and without transecting the facial nerve. […] Mortality was less than 5%. For sham control, all procedures were performed in the same way, with the exception of the occlusion of the MCA.
After deparraffinized of cerebral histological paraffin sections, citrate buffer antigen (epitope) retrieval pretreatment were conducted as previously (Shi S R et al., J Histochem Cytochem. 41:1599-604(1993)). Briefly, pre-heat water bath with staining dish containing 10 mM citrate buffers (pH 6.0) until temperature reaches 95-100° C. Immerse slides in the staining dish and place the lid loosely on the staining dish. Incubate for 20 minutes and turn off the water bath. Place the staining dish at room temperature and allow the slides to cool for 20 minutes. After epitope retrivals, sections were immunostained as following steps:
Incubate sections with methanol and 0.3% H2O2 for 30 minutes for blocking endogenous peroxidase activity at room temperature and rinse in 0.01M phosphate buffered saline (PBS; pH 7.2) for 3 times;
Incubate sections with normal horse serum blocking solution (Vector Lab. Inc., Burlingame, USA. Dilution 1:100) for 1 hour to block non-specific binding of immunoglobulin at room temperature in humidity chamber, and rinse in 0.01M PBS for 3 times;
Incubate sections with primary antisera for overnight at 4° C. in humidity chamber and rinse in 0.01M PBS for 3 times;
Incubate sections with biotinylated universal secondary antibody (Vector Lab., Dilution 1:50) for 1 hour at room temperature in humidity chamber and rinse in 0.01M PBS for 3 times;
Incubate sections with ABC reagents (Vectastain Elite ABC Kit, Vector Lab., Dilution 1:50) for 1 hour at room temperature in humidity chamber and rinse in 0.01M PBS for 3 times;
Incubate sections in Peroxidae substrate kit (Vector Lab.) for 5 min at room temperature and rinse in 0.01M PBS for 3 times;
Counterstain with Mayer's hematoxylin solution and rinse in running tap water for 30 minutes;
Dehydrate through 95% ethanol for 2 minutes, 100% ethanol for 3 times and Clear in xylene for two times; and
Coverslip with permanent mounting medium and observed under light microscope (Nikkon, Japan).
Histomorphometry: The nerve cells occupied by over 10% of immunoreactivities, the density, of each antiserum, caspase-3 and PARP were regarded as immunoreactive. In the present study, the numbers of each caspase-3 and PARP-immunoreactive cells among mm^2 of ipsilateral peri-infarct/defect cerebral cortex were measured using a computer-assisted image analysis program, respectively.
All data were expressed as mean±standard deviation (S.D.) of ten rats. Multiple comparison tests for different dose groups were conducted. Variance homogeneity was examined using the Levene test (Levene A, Clin Otalary, 1981; 6:145-51). […] Statistical analyses were conducted using SPSS (Release 14K, SPSS Inc., USA; Ludbrook, Clin Exp Pharmacol Physiol, 1997; 24:294-6). In addition, the percent changes between neuron apoptosis control and mirodenafil treated rats were calculated to help the understanding of the efficacy of test material as follow equation 3. Percentage changes as compared with neuron apoptosis control (%)=[((Data of mirodenafil treated groups−Data of neuron apoptosis control)/Data of neuron apoptosis control)×100] [EQUATION 3]

SMILES: CCCOc1ccc(S(=O)(=O)N2CCN(CCO)CC2)cc1-c1nc2c(CCC)cn(CC)c2c(=O)[nH]1 [Mirodenafil, mirodenafil]
- numbers and percentages of body swings to ipsilateral right sides at 28 days, change as compared with neuron apoptosis control ([1]; 1 mg/kg from 24 hrs after surgery): 82.00%
- numbers and percentages of body swings to ipsilateral right sides at 28 days, change as compared with neuron apoptosis control ([1]; 1 mg/kg from 72 hrs after surgery): 48.00%
- numbers and percentages of body swings to ipsilateral right sides at 28 days, change as compared with neuron apoptosis control ([1]; 1 mg/kg from 168 hrs after surgery): 14.00%
- numbers of PARP-immunoreactive neurons, change as compared with neuron apoptosis control ([2]; 0.5 mg/kg): −37.58%
- Numbers of neurons: PARP+ ([2]; 0.5 mg/kg s.c. once a day): 47.50 ± 9.44^ab cells/mm^2 of cerebral cortex
- numbers of PARP-immunoreactive neurons, change as compared with neuron apoptosis control ([2]; 1 mg/kg): −76.74%
- Numbers of neurons: PARP+ ([2]; 1 mg/kg s.c. once a day): 17.70 ± 2.00^ab cells/mm^2 of cerebral cortex
- numbers of PARP-immunoreactive neurons, change as compared with neuron apoptosis control ([2]; 2 mg/kg): −78.32%
- Numbers of neurons: PARP+ ([2]; 2 mg/kg s.c. once a day): 16.50 ± 3.81^ab cells/mm^2 of cerebral cortex
